Measured values reported in patent US20030148991A1, “Combination of lipoic acid and c1 donors for the treatment of disorders of the central nervous system” (priority 2000, published 2003).

Columns and labels:
[1] = tested on: brain cells; assay: Measurement of the production of free radicals (DHR 123 fluorescence); type: cell-based; settings: 100 and 500 μmol/l, time-dependent, compared with control, FIGS. 3 and 4
Experimental: Oxidative stress or the production of free radicals was measured using the fluorescence dye dihydrorhodamine (DHR 123). Brain cells were enriched by incubation with DHR 123 in a waterbath at 37° C. for 15 minutes. DHR is then located in particualr in the mitochondria and fluoresces after oxidation by free radicals. Fluorescence was measured at an excitation wavelength of 500 nm and an emission wavelength of 536 nm. The generation of free radicals was then measured in the absence (control) and presence of lipoic acid at various concentrations (100 and 500 μmol/l).

[2] = tested on: whole brain membranes; assay: Measurement of membrane fluidity (DPH fluorescence anisotropy); parameters: species or system NMRI mice; settings: whole brain membranes from old (22 months) mice; 1, 10, 100 μmol/l and 1 mmol/l; 37° C.; FIGS. 1 and 2
Experimental: The fluidity of whole brain membranes (without cerebellum, medella oblongata and brain stem) from young (3 months) and old (22 months) NMRI mice was determined by fluorescence spectroscopy.
Mouse whole brain membranes were prepared by a modification of the method of Cohnen and Müller, 1993. The deep-frozen hemispheres were, after weighing, transferred into 15 ml of ice-cold buffer IV (Tris-HCl buffer 5 mmol/l; pH 7.4), homogenized using a homogenizer (Potter, glass homogenizer with Teflon pestle, from Braun) at about 1 100 rpm by moving the Teflon pestle up and down about ten times, and transferred into centrifuged tubes (PP30 ml, from Schubert). […]
Membrane fluidity can be measured inter alia by fluorescence spectroscopic methods. In fluorescence polarization spectroscopy, a membrane-bound fluorescent dye is brought to an excited energy state by polarized light of a particular wavelength. […] Membrane fluidity is therefore also indicated as fluorescence anisotropy besides the fluorescence polarization. The anisotropy is in this case calculated from the measured polarization.
The fluorescent dye diphenylhexatriene (DPH) was used for this purpose. […] This process is measured as anisotropy. […]

SMILES: O=C(O)CCCCC1CCSS1 (centres unmarked) [lipoic acid, 5-(1,2-dithiolan-3-yl)valeric acid]
- generation of free radicals (increase in DHR 123 fluorescence) [1]: counteracts the generation of free radicals
- DPH anisotropy (membrane fluidity) [2]: reduce the anisotropy in membranes from old mice
